Laboratory results as given in PubChem BioAssay (NCI).
“And” between values parts separate entries of the source, which are not always exact repeats. Equal values may be shown once.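 Grown in 96-well plates, cells were treated for 48 hours with each compound at five concentrations. Insufficient inhibition: endpoint recorded as highest concentration tested. GI50 is the concentration that inhibits growth by half. At the TGI there is no net growth.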

Tests used:
Assay in all cases: NCI anticancer screen, dose series, 48 h
LOX IMVI melanoma = system: LOX IMVI melanoma
BT-549 breast = system: BT-549 breast
M14 melanoma = system: M14 melanoma
HS 578T breast = system: HS 578T breast
A549 NSCLC = system: A549 NSCLC
COLO 205 colon = system: COLO 205 colon
OVCAR-3 ovarian = system: OVCAR-3 ovarian
TK-10 renal = system: TK-10 renal
HCT-15 colon = system: HCT-15 colon
OVCAR-8 ovarian = system: OVCAR-8 ovarian

Structure (SMILES)	GI50 (LOX IMVI melanoma)	TGI (LOX IMVI melanoma)	GI50 (BT-549 breast)	TGI (BT-549 breast)	GI50 (M14 melanoma)	TGI (M14 melanoma)	GI50 (HS 578T breast)	TGI (HS 578T breast)	GI50 (A549 NSCLC)	TGI (A549 NSCLC)	GI50 (COLO 205 colon)	TGI (COLO 205 colon)	GI50 (OVCAR-3 ovarian)	TGI (OVCAR-3 ovarian)	GI50 (TK-10 renal)	TGI (TK-10 renal)	GI50 (HCT-15 colon)	TGI (HCT-15 colon)	GI50 (OVCAR-8 ovarian)	TGI (OVCAR-8 ovarian)
NC(=O)c1ccc(-c2nc(-c3ccc4c(c3)OCO4)c(-c3ccccn3)[nH]2)cc1	> 25 µM and 26.9 µM	> 84.4 µM	> 25 µM and 22.5 µM	> 96.7 µM	> 25 µM and 38.1 µM	> 100 µM	> 25 µM and 28.2 µM	> 100 µM	> 25 µM and 27.7 µM	> 100 µM	> 25 µM and 31.4 µM	> 100 µM	> 25 µM and 35.3 µM	> 100 µM	> 25 µM and 47.7 µM	> 100 µM	> 25 µM and 23 µM	> 25 µM and 63.6 µM	> 25 µM and 34.1 µM	> 100 µM
OCCn1cnc2c(SCc3ccccc3)ncnc21	–	> 100 µM	–	> 100 µM	–	> 100 µM	–	> 100 µM	–	> 100 µM	–	> 100 µM	–	> 100 µM	–	> 100 µM	–	> 100 µM	–	> 100 µM
Nc1c(C(=O)c2cccc(-c3cccnc3)c2)cnn1-c1ccc(F)cc1F	5.76 µM	> 25 µM	5.91 µM	> 25 µM	2.71 µM	> 25 µM	7.44 µM	> 25 µM	2.05 µM	> 25 µM	1.19 µM	> 25 µM	3.93 µM	> 25 µM	6.43 µM	> 25 µM	1.11 µM	> 25 µM	8.13 µM	> 25 µM
COC(=N)c1c(N)[n+]([O-])c2ccc(F)cc2[n+]1[O-]	> 100 µM	> 100 µM	> 100 µM	> 100 µM	> 100 µM	> 100 µM	> 100 µM	> 100 µM	> 100 µM	> 100 µM	61.7 µM	> 100 µM	> 100 µM	> 100 µM	> 100 µM	> 100 µM	> 100 µM	> 100 µM	> 100 µM	> 100 µM
COC(=O)Nc1nc2ccc(Oc3cccc(NC(=O)Nc4cc(C(F)(F)F)ccc4F)c3)cc2[nH]1	9.08 µM	> 25 µM	23 µM	> 25 µM	7.67 µM	> 25 µM	7.47 µM	> 25 µM	16 µM	> 25 µM	8.82 µM	> 25 µM	14 µM	> 25 µM	> 25 µM	> 25 µM	11.8 µM	> 25 µM	> 25 µM	> 25 µM
CC(=O)[O][Sn]([CH2]c1ccccc1)([CH2]c1ccccc1)[CH2]c1ccccc1	3.79 µM	> 4.64 µM	> 10 µM	> 10 µM	> 8.37 µM	> 10 µM	> 6.39 µM	> 9.44 µM	> 8.99 µM	> 10 µM	> 5.6 µM	> 6.79 µM	> 6.14 µM	> 10 µM	> 3.8 µM	> 5.43 µM	4.25 µM	> 4.64 µM	> 10 µM	> 10 µM
Nc1c(C(=O)c2cccc(C#CCO)c2)cnn1-c1ccc(F)cc1	> 25 µM	> 25 µM	> 25 µM	> 25 µM	> 25 µM	> 25 µM	5.18 µM	> 25 µM	> 25 µM	> 25 µM	> 25 µM	> 25 µM	> 25 µM	> 25 µM	> 25 µM	> 25 µM	> 25 µM	> 25 µM	> 25 µM	> 25 µM
COC(=O)c1cc2ccccc2c2c3c(ccc12)OCO3	772 µM	> 1000 µM	47.1 µM	482 µM	474 µM	> 1000 µM	36.4 µM	247 µM	117 µM	> 1000 µM	–	> 1000 µM	68.7 µM	700 µM	43.8 µM	325 µM	137 µM	> 1000 µM	41.1 µM	> 1000 µM
Cc1cnc(CNC(=O)c2c(=O)c3ccc(N4CCCN(C)CC4)nc3n3c2sc2ccccc23)cn1	0.331 µM	2.05 µM	12.6 µM	28.4 µM	6.49 µM	23 µM	16.6 µM	47.4 µM	0.33 µM	7.23 µM	1.07 µM	22.8 µM	7.2 µM	22 µM	8.94 µM	23 µM	1.03 µM	7.31 µM	1.09 µM	21.2 µM
C=C1c2ccoc2C[C@H]2[C@H]1CC[C@@]1(O)[C@@](C)(C(=O)OC)CCC[C@]21C	17.6 µM	36.7 µM	26 µM	60.3 µM	29.3 µM	82.6 µM	71.9 µM	> 100 µM	25.5 µM	> 100 µM	20 µM	55 µM	17.4 µM	43.3 µM	> 100 µM	> 100 µM	24.9 µM	64.9 µM	> 100 µM	> 100 µM
Cc1ccc(C(=O)NC2CCC2)cc1-c1ccc(C(=O)NCC2CC2)cc1	> 25 µM	> 25 µM	> 25 µM	> 25 µM	> 25 µM	> 25 µM	> 25 µM	> 25 µM	> 25 µM	> 25 µM	> 25 µM	> 25 µM	> 25 µM	> 25 µM	> 25 µM	> 25 µM	> 25 µM	> 25 µM	> 25 µM	> 25 µM
O=C1NOC(c2ccc(O)cc2)(c2ccc(O)cc2)c2ccccc21	> 100 µM	> 100 µM	> 100 µM	> 100 µM	> 100 µM	> 100 µM	> 100 µM	> 100 µM	> 100 µM	> 100 µM	> 100 µM	> 100 µM	> 100 µM	> 100 µM	> 100 µM	> 100 µM	> 100 µM	> 100 µM	> 100 µM	> 100 µM
NCCN.O=C([O-])CN1CCOCC1.[OH-].[Pt+4]	> 100 µM	> 100 µM	> 100 µM	> 100 µM	> 100 µM	> 100 µM	> 100 µM	> 100 µM	> 100 µM	> 100 µM	> 100 µM	> 100 µM	> 100 µM	> 100 µM	> 100 µM	> 100 µM	> 100 µM	> 100 µM	> 100 µM	> 100 µM
COc1ccc(/C=C(\C(=O)NCc2cccnc2)S(=O)(=O)c2ccccc2)cc1OC	3.09 µM	11.8 µM	2.45 µM	6.69 µM	2.48 µM	8.59 µM	3.41 µM	26.3 µM	2.86 µM	13.4 µM	2.77 µM	6.63 µM	3.22 µM	11.4 µM	5.57 µM	18.1 µM	2.85 µM	11.7 µM	3.84 µM	25.1 µM
COc1ccccc1CNCCCN1C(=O)c2ccc3c4c(ccc(c24)C1=O)C(=O)N(CCCN)C3=O	0.685 µM	2.87 µM	1.58 µM	2.99 µM	0.833 µM	2.34 µM	1.96 µM	6.95 µM	1.87 µM	4.11 µM	0.814 µM	2.12 µM	0.329 µM	1.06 µM	2.28 µM	7.89 µM	1.41 µM	3.67 µM	0.49 µM	3.81 µM
CN(C)CC1CCC2=C(C1=O)C(c1ccc(Cl)c(Cl)c1)C1=C(CCC(CN(C)C)C1=O)O2 (centres undefined)	3.14 µM	15.2 µM	14.2 µM	27.7 µM	9.35 µM	23.4 µM	15.6 µM	36.2 µM	16.2 µM	32.2 µM	5.48 µM	19.6 µM	1.6 µM	5.89 µM	0.7 µM	1.98 µM	8.75 µM	29.2 µM	4.25 µM	16 µM
